From ChEMBL document CHEMBL1201862, “PubChem BioAssay data set” (2004)
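48-hour exposure; five concentrations; linearly interpolated endpoints. Abbreviation: GI50, concentration required for 50% inhibition of growth.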 Activity calls are given as the source filed them. Rule as the data show it: active = GI50 up to about 1.1 µM and inactive = higher.

What was measured:
Test in all cases: NCI tumour cell line growth inhibition, 48 h
HCT-116 = tested on: HCT-116
SK-MEL-5 = tested on: SK-MEL-5
SNB-19 = tested on: SNB-19
TK-10 = tested on: TK-10
SK-MEL-28 = tested on: SK-MEL-28
LOX IMVI = tested on: LOX IMVI
HCT-15 = tested on: HCT-15
SF-539 = tested on: SF-539
DU-145 = tested on: DU-145
MDA-MB-435 = tested on: MDA-MB-435
HT-29 = tested on: HT-29
NCI-H460 = tested on: NCI-H460
SK-OV-3 = tested on: SK-OV-3
786-0 = tested on: 786-0
HL-60 = tested on: HL-60
BT-549 = tested on: BT-549
OVCAR-3 = tested on: OVCAR-3
Malme-3M = tested on: Malme-3M
UO-31 = tested on: UO-31
IGROV-1 = tested on: IGROV-1
SK-MEL-2 = tested on: SK-MEL-2
NCI-H226 = tested on: NCI-H226
HCC 2998 = tested on: HCC 2998
MDA-MB-231 = tested on: MDA-MB-231
A549 = tested on: A549
MCF7 = tested on: MCF7
SF-295 = tested on: SF-295
SN12C = tested on: SN12C
UACC-62 = tested on: UACC-62
SF-268 = tested on: SF-268
CCRF-CEM = tested on: CCRF-CEM
MOLT-4 = tested on: MOLT-4
OVCAR-5 = tested on: OVCAR-5
U-251 = tested on: U-251
NCI/ADR-RES = tested on: NCI/ADR-RES
NCI-H522 = tested on: NCI-H522
RPMI-8226 = tested on: RPMI-8226
K562 = tested on: K562
SNB-75 = tested on: SNB-75
UACC-257 = tested on: UACC-257
Hs-578T = tested on: Hs-578T
NCI-H23 = tested on: NCI-H23
PC-3 = tested on: PC-3
SW-620 = tested on: SW-620
ACHN = tested on: ACHN
CAKI-1 = tested on: CAKI-1
M14 = tested on: M14
HOP-62 = tested on: HOP-62
T47D = tested on: T47D
KM12 = tested on: KM12
MDA-N = tested on: MDA-N
EKVX = tested on: EKVX
SR = tested on: SR
COLO 205 = tested on: COLO 205
A498 = tested on: A498
OVCAR-8 = tested on: OVCAR-8
HOP-92 = tested on: HOP-92
OVCAR-4 = tested on: OVCAR-4
RXF 393 = tested on: RXF 393

Measured: GI50

Cc1nc2cc(Cl)c(N)cc2[nH]1
> 100 µM: HCT-15
inactive: HCT-116 > 100 µM | SK-MEL-5 > 100 µM | SNB-19 > 100 µM | TK-10 > 100 µM | SK-MEL-28 > 100 µM | LOX IMVI > 100 µM | SF-539 > 10 µM | DU-145 > 100 µM | MDA-MB-435 > 100 µM | HT-29 > 100 µM | NCI-H460 > 100 µM | SK-OV-3 > 100 µM | 786-0 > 100 µM | HL-60 > 100 µM | BT-549 > 100 µM | OVCAR-3 > 100 µM | Malme-3M > 100 µM | UO-31 > 100 µM | IGROV-1 > 100 µM | SK-MEL-2 > 100 µM | NCI-H226 > 100 µM | HCC 2998 > 10 µM | MDA-MB-231 > 100 µM | A549 > 100 µM | MCF7 > 100 µM | SF-295 > 100 µM | SN12C > 100 µM | UACC-62 > 100 µM | SF-268 > 100 µM | CCRF-CEM > 100 µM | MOLT-4 > 100 µM | OVCAR-5 > 100 µM | U-251 > 100 µM | NCI/ADR-RES > 100 µM | NCI-H522 > 100 µM | RPMI-8226 > 100 µM | K562 > 100 µM | SNB-75 > 100 µM | UACC-257 > 100 µM | Hs-578T > 100 µM | NCI-H23 > 100 µM | PC-3 > 100 µM | SW-620 > 100 µM | ACHN > 100 µM | CAKI-1 > 100 µM | M14 > 100 µM | HOP-62 > 100 µM | T47D > 100 µM | KM12 > 100 µM | MDA-N > 100 µM | EKVX > 100 µM | SR > 100 µM | COLO 205 > 100 µM | A498 > 100 µM | OVCAR-8 > 100 µM

Clc1ccc(Nc2ncco2)cc1Cl
inactive: HOP-92 > 10 µM | HCT-116 > 10 µM | SK-MEL-5 > 10 µM | SNB-19 > 10 µM | TK-10 > 10 µM | SK-MEL-28 > 10 µM | LOX IMVI > 10 µM | SF-539 > 10 µM | DU-145 > 10 µM | MDA-MB-435 > 10 µM | HT-29 > 10 µM | NCI-H460 > 10 µM | SK-OV-3 > 10 µM | 786-0 > 10 µM | BT-549 > 10 µM | OVCAR-3 > 10 µM | Malme-3M > 10 µM | UO-31 > 10 µM | IGROV-1 > 10 µM | NCI-H226 > 10 µM | HCC 2998 > 10 µM | MDA-MB-231 > 10 µM | A549 > 10 µM | MCF7 > 10 µM | SF-295 > 10 µM | SN12C > 10 µM | UACC-62 > 10 µM | SF-268 > 10 µM | CCRF-CEM > 10 µM | MOLT-4 > 10 µM | OVCAR-5 > 10 µM | U-251 > 10 µM | NCI/ADR-RES > 10 µM | NCI-H522 > 10 µM | K562 > 10 µM | SNB-75 > 10 µM | UACC-257 > 10 µM | Hs-578T > 10 µM | NCI-H23 > 10 µM | PC-3 > 10 µM | SW-620 > 10 µM | OVCAR-4 > 10 µM | ACHN > 10 µM | CAKI-1 > 10 µM | M14 > 10 µM | HOP-62 > 10 µM | T47D > 10 µM | KM12 > 10 µM | MDA-N > 10 µM | EKVX > 10 µM | SR > 10 µM | COLO 205 > 10 µM | A498 > 10 µM | OVCAR-8 > 10 µM
> 10 µM: HCT-15

COC(=O)C1(C)CCC(c2ccc(C)cc2)=C(CC(=O)O)C1 (stereo not drawn)
> 100 µM: HCT-15
inactive: HOP-92 > 100 µM | HCT-116 > 100 µM | SK-MEL-5 > 100 µM | SNB-19 > 100 µM | TK-10 > 100 µM | SK-MEL-28 > 100 µM | LOX IMVI > 100 µM | SF-539 > 100 µM | DU-145 > 100 µM | MDA-MB-435 > 100 µM | HT-29 > 100 µM | NCI-H460 > 100 µM | SK-OV-3 > 100 µM | 786-0 > 100 µM | HL-60 > 100 µM | BT-549 > 100 µM | OVCAR-3 > 100 µM | Malme-3M > 100 µM | IGROV-1 > 100 µM | SK-MEL-2 > 100 µM | MDA-MB-231 > 100 µM | RXF 393 > 100 µM | A549 > 100 µM | MCF7 > 100 µM | SF-295 > 100 µM | SN12C > 100 µM | UACC-62 > 100 µM | SF-268 > 100 µM | MOLT-4 > 100 µM | OVCAR-5 > 100 µM | U-251 > 100 µM | NCI/ADR-RES > 100 µM | NCI-H522 > 100 µM | RPMI-8226 > 100 µM | K562 > 100 µM | SNB-75 > 100 µM | UACC-257 > 100 µM | Hs-578T > 100 µM | NCI-H23 > 100 µM | PC-3 > 100 µM | SW-620 > 100 µM | OVCAR-4 > 100 µM | ACHN > 100 µM | M14 > 100 µM | HOP-62 > 100 µM | T47D > 100 µM | MDA-N > 100 µM | EKVX > 100 µM | SR > 100 µM | COLO 205 > 100 µM | A498 > 100 µM | OVCAR-8 > 100 µM

CCOC(=O)c1cnc2[nH]ccn2c1=O
> 10 µM: HCT-15
inactive: HOP-92 > 10 µM | HCT-116 > 10 µM | SK-MEL-5 > 10 µM | SNB-19 > 10 µM | TK-10 > 10 µM | SK-MEL-28 > 10 µM | LOX IMVI > 10 µM | SF-539 > 10 µM | DU-145 > 10 µM | MDA-MB-435 > 10 µM | HT-29 > 10 µM | NCI-H460 > 10 µM | SK-OV-3 > 10 µM | 786-0 > 10 µM | HL-60 > 10 µM | BT-549 > 10 µM | OVCAR-3 > 10 µM | Malme-3M > 10 µM | UO-31 > 10 µM | IGROV-1 > 10 µM | SK-MEL-2 > 10 µM | NCI-H226 > 10 µM | MDA-MB-231 > 10 µM | RXF 393 > 10 µM | A549 > 10 µM | MCF7 > 10 µM | SF-295 > 10 µM | SN12C > 10 µM | UACC-62 > 10 µM | SF-268 > 10 µM | CCRF-CEM > 10 µM | MOLT-4 > 10 µM | OVCAR-5 > 10 µM | U-251 > 10 µM | NCI/ADR-RES > 10 µM | RPMI-8226 > 10 µM | K562 > 10 µM | SNB-75 > 10 µM | UACC-257 > 10 µM | Hs-578T > 10 µM | NCI-H23 > 10 µM | PC-3 > 10 µM | SW-620 > 10 µM | OVCAR-4 > 10 µM | ACHN > 10 µM | CAKI-1 > 10 µM | M14 > 10 µM | HOP-62 > 10 µM | T47D > 10 µM | KM12 > 10 µM | MDA-N > 10 µM | EKVX > 10 µM | SR > 10 µM | COLO 205 > 10 µM | A498 5.48 µM | OVCAR-8 > 10 µM

COc1nc2c(c(=O)n1C)N[C@H]1[C@H](OC(C)=O)[C@@H](OC(C)=O)CO[C@H]1N2
inactive: HOP-92 > 100 µM | HCT-116 > 100 µM | SK-MEL-5 > 100 µM | SNB-19 > 100 µM | TK-10 > 100 µM | SK-MEL-28 > 100 µM | LOX IMVI > 100 µM | SF-539 > 100 µM | DU-145 > 100 µM | MDA-MB-435 > 100 µM | HT-29 > 100 µM | NCI-H460 > 100 µM | SK-OV-3 > 100 µM | 786-0 > 100 µM | HL-60 > 100 µM | BT-549 > 100 µM | OVCAR-3 > 100 µM | Malme-3M > 100 µM | UO-31 > 100 µM | IGROV-1 > 100 µM | SK-MEL-2 > 100 µM | NCI-H226 > 100 µM | MDA-MB-231 > 100 µM | RXF 393 > 100 µM | A549 > 100 µM | MCF7 > 100 µM | SF-295 > 100 µM | SN12C > 100 µM | UACC-62 > 100 µM | SF-268 > 100 µM | CCRF-CEM > 10 µM | MOLT-4 > 100 µM | OVCAR-5 > 100 µM | U-251 > 100 µM | NCI/ADR-RES > 100 µM | NCI-H522 > 100 µM | RPMI-8226 > 100 µM | K562 > 100 µM | SNB-75 > 100 µM | UACC-257 > 100 µM | Hs-578T > 100 µM | PC-3 > 100 µM | SW-620 > 100 µM | OVCAR-4 > 100 µM | ACHN > 100 µM | CAKI-1 > 100 µM | M14 > 100 µM | HOP-62 > 100 µM | T47D > 100 µM | KM12 > 100 µM | MDA-N > 100 µM | EKVX > 100 µM | SR > 100 µM | COLO 205 > 100 µM | A498 > 100 µM | OVCAR-8 > 100 µM
> 100 µM: HCT-15
